Results published in patent US20240016900A1, “COLLAGEN PEPTIDE-BASED MEDICAMENT COMPOSITIONS AND USES THEREOF” (SUSTAIN HOLDINGS, LLC, priority 2022, published 2024).

How the values were obtained:
[1] = cited from earlier work; for melting temperature of a triple helix: Sakakibara et al. 1973
[2] = system: glial lamina at the optic nerve head; assay: AFM measurement of Young's Modulus and morphology in glial lamina of mouse eye explants after MMP1 treatment, with or without CMP; settings: MMP1 alone, 5 μg/ml for 30 minutes, compared with untreated baseline
From the text: To conduct these studies, mouse eyes were explanted and thin sectioned as described in Example 2 above, and sections of the glial lamina and the peripapillary sclera were examined by atomic force microscopy (AFM).
To increase the statistical significance of these studies, AFM was used to make Young's Modulus measurements across a large number of points in multiple individual locations in a given sample of glial lamina, as was done in Example 2 for peripapillary sclera.

glial lamina = assay: Fluorescence microscopy of disrupted (RCHP) and intact (Col1) collagen in explants, glial lamina; parameters: species or system mouse; settings: MMP1 alone 30 minutes
Method: (§1) To examine the distribution of disrupted and intact collagen in such explants, samples prepared as above were treated with DAPI (to localize cell nuclei), a fluorescently labeled antibody against type I collagen (“Col1”), and a Cy3-labeled collagen hybridizing peptide (“RCHP”) which binds only to areas of disrupted collagen.

peripapillary sclera = assay: Fluorescence microscopy of disrupted (RCHP) and intact (Col1) collagen in explants, peripapillary sclera; parameters: species or system mouse; settings: MMP1 alone 30 minutes
Method: as §1

Human type I collagen = Human type I collagen (Homo sapiens, UniProt P02452+P08123); assay: AFM of type I collagen plated on substrates, MMP1 with or without CMP13; assay type: biochemical; settings: collagen 10 μg/ml; MMP1 alone 60 ng/ml for 30 minutes
Chain of Human type I collagen (P02452 162-1218 limits assumed): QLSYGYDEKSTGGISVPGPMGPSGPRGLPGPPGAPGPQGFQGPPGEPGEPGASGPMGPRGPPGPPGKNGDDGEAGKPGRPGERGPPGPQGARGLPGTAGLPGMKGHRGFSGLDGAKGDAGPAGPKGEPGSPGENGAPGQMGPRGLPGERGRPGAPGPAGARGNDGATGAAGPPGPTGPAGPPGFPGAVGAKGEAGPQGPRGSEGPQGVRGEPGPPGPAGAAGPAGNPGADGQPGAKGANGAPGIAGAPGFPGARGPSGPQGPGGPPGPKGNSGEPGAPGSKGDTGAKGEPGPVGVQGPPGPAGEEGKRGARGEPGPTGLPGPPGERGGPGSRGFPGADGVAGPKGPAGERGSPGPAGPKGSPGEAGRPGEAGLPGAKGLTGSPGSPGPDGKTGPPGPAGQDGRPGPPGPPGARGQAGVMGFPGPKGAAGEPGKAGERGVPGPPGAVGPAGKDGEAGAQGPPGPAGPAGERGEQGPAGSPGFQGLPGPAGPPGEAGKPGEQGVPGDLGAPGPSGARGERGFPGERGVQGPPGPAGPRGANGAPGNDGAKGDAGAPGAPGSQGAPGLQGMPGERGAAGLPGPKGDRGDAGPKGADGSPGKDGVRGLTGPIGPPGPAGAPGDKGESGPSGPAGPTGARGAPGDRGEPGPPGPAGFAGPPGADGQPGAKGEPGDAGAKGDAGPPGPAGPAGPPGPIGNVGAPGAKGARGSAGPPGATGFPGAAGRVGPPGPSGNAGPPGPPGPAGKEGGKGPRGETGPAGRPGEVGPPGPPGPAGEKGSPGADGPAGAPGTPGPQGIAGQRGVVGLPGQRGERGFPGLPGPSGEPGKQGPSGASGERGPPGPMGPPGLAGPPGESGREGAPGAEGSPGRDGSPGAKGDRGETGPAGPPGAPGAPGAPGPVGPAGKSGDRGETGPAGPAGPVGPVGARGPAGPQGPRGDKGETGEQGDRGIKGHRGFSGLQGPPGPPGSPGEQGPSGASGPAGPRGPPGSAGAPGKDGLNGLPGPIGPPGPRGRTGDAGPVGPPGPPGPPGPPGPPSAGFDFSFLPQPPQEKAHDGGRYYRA
Chain of Human type I collagen (P08123 80-1119 limits assumed): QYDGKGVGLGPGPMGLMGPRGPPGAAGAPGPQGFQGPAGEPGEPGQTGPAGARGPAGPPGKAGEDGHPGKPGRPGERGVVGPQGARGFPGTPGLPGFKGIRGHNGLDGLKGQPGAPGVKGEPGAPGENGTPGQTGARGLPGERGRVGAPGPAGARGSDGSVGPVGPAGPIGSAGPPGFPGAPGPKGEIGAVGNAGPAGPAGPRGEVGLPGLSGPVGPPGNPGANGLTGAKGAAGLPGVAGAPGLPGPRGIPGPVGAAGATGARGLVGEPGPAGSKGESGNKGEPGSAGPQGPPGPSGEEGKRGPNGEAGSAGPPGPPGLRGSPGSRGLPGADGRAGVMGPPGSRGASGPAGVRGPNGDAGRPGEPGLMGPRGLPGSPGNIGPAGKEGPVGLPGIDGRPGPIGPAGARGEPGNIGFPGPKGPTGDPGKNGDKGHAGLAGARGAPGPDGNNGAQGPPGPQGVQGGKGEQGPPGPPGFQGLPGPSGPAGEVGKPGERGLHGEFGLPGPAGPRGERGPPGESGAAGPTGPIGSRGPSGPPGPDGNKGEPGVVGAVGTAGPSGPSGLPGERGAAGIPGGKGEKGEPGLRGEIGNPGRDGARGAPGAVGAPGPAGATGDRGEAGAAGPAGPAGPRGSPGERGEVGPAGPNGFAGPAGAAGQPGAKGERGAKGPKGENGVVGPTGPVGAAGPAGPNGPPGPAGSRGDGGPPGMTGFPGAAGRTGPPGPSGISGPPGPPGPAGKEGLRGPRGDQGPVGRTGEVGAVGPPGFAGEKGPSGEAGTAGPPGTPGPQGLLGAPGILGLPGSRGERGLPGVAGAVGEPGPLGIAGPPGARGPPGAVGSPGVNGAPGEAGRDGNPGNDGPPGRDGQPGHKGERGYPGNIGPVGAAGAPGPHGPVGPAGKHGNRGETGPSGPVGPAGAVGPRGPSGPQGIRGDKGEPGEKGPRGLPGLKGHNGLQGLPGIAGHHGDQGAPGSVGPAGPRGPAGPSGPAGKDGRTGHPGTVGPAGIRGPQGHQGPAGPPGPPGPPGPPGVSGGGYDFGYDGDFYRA
From the text: In untreated (baseline) samples, extensive and multilamellar networks of collagen fibers, fibrils and bundles could be readily observed (FIGS. 15A, 15B).

[3] = system: peripapillary sclera in mouse eyes; assay: AFM measurement of Young's Modulus in mouse peripapillary sclera explants after MMP treatment, with or without CMP; settings: MMP1 alone, 50 μg/ml for 30 minutes, compared with untreated baseline
From the text: Therefore, to examine the possible therapeutic effects of CMPs of the invention in treating myopia, studies were designed to test the effects of certain CMPs conjugates in a model of the in vivo setting—an ex vivo study of the collagen matrix in the peripapillary sclera in mouse eyes. To conduct these studies, mouse eyes were explanted and thin sectioned, and sections of the peripapillary sclera (the scleral area adjacent to the optic nerve head) were examined by atomic force microscopy (AFM).
To examine the impact of matrix metalloproteinase (MMP) treatment, with or without subsequent CMP treatment, on the stiffness of the mouse peripapillary scleral explants, samples were treated with MMP (50 μg/ml for 30 minutes), followed by either a PBS washout or by treatment with a CMP-containing formulation of the invention for 60 minutes.
To increase the statistical significance of these studies, AFM was used to make Young's Modulus measurements across a large number of points in multiple individual locations in a given sample of peripapillary sclera.

(ProHypGly)10
melting temperature of a triple helix [1]: 58 °C
rate at which chains fold into a triple helix ([1]; relative to (ProProGly)10, Chopra and Ananthanarayanan 1982): substantially greater

(ProProGly)10
melting temperature of a triple helix [1]: 24 °C

MMP1: matrix metalloproteinase 1, used to disrupt collagen in explants and on substrates
Young's Modulus (glial lamina stiffness) [2]: significant decrease in Young's Modulus
Young's Modulus (glial lamina stiffness) ([2]; listed as MMP): adversely affecting the stiffness of the glial lamina
disrupted collagen (RCHP) (glial lamina): large amount of disrupted collagen
intact collagen (Col1) (glial lamina): nearly devoid of intact collagen
disrupted collagen (RCHP) (peripapillary sclera): large amount of disrupted collagen
collagen fiber/fibril networks on substrate (AFM) (Human type I collagen): substantial amount of disorganized collagen and little remaining fiber/fibril formation
Young's Modulus (scleral stiffness) [3]: significant decrease in Young's Modulus
Young's Modulus (scleral stiffness) ([3]; listed as MMP): significantly reduced the scleral stiffness
